Test system: Porcine aortic endothelial cells (PAEC)
Assay: Chemotactic assay on PAEC (modified Boyden chamber)
Format: cell-based
Description: Cell migration was evaluated using a modified Boyden 48-well microchamber kit (NeuroProbe, Cabin John, MD.). Near confluent EC and PSMC were rinsed with DMEM and trypsinized. Cells were resuspended in DMEM, 5% FBS, and antibiotics, and a cell count was obtained. […] ER antagonists were added 5 minutes before 17βE. Cells were harvested by trypsinization and resuspended in DMEM, 1% FBS, and antibiotics at a concentration of 5×10^5 cells/ml. […] The two sections of the system were separated by a porous polycarbonate filter (5-μm pores), pre-treated with a gelatine solution (1.5 mg/ml), and assembled. Five hours post incubation at 37° C., the nonmigrated cells were scraped with a plastic policeman, and the migrated cells were stained using a Quick-Diff solution. The filter was then mounted on a glass slide, and migrated cells were counted using a microscope adapted to a video camera to obtain a computer-digitized image.
Cell migration was evaluated using a modified Boyden 48-well microchamber kit (NeuroProbe, Cabin John, MD.). Near confluent PAEC and PSMC were rinsed with DMEM and trypsinized. Cells were resuspended in DMEM, 5% FBS, and antibiotics, and a cell count was obtained. PAEC and PSMC were seeded at 2.5×10^5 cells/well of 6-well tissue culture plates; stimulated for 24 hours in DMEM, 5% FBS, and antibiotics with or without antisense oligomers (10^−6 mol/L) and starved for 48 hours in DMEM, 0.1% FBS, and antibiotics with or without antisense oligomers (10^−6 mol/L daily) with or without 17βE (10^−8 mol/L). Cells were harvested by trypsinization and resuspended in DMEM, 1% FBS, and antibiotics at a concentration of 5×10^5 cells/mL. Fifty μL of this cell suspension with or without antisense oligomers (10^−6 mol/L) treated with or without 17βE (10^−8 mol/L) was added in the higher-chamber of the modified Boyden chamber apparatus, and the lower chamber was filled with DMEM, 1% FBS, antibiotics plus the desired concentration of agonist either 17βE (10^−8 mol/L) or platelet-derived growth factor-BB (PDGF-BB). The 2 sections of the system were separated by a porous polycarbonate filter (5-μm pores size), pretreated with a gelatine solution (1.5 mg/mL), and assembled. Five hours postincubation at 37° C., the non-migrated cells were scraped with a plastic policeman, and the migrated cells were stained using a Quick-Diff solution (Shandon Inc). The filter was then mounted on a glass slide, and migrated cells were counted using a microscope adapted to a video camera to obtain a computer-digitized image.

## C[C@]12CC[C@@H]3c4ccc(O)cc4CC[C@H]3[C@@H]1CC[C@@H]2O [17βE, 17-beta-estradiol]
17βE 10^−8M combined with bFGF
  stimulation of PAEC migration as compared to bFGF (10 ng/ml) alone: 121%
17βE 10^−8 mol/L, 5 hours
  induction of PAEC migration as compared to DMEM 1%: 4.63 fold
